According to patent publication US10829796B2, “Bacteria identification and antimicrobial susceptibility test” (priority 2015, dated 2020):

System: bacteria in clinical bovine mastitis milk samples
Assay: Combined bacteria identification and antimicrobial susceptibility test (colour of wells, MIC) on clinical bovine mastitis milk samples
Assay type: cell-based
Method: Clinical bovine mastitis milk samples were collected by a vet clinic in South Island, New Zealand. Samples were stored in the freezer for several months and shipped frozen to the testing facility. In this Example, the term “clinical” means that dairy cows had clinical symptoms of an udder infection e.g. cow behaved unusual, milk clots, swollen udder among other typical symptoms. Testing was executed in microwell plate comprising of 24 wells (3×8 wells).
In addition, 20 ul of clinical mastitis sample was added to each well with a laboratory pipette.
Abbreviations • 1. 80 ul GC+10 ul Tell: 80 ul Giolitti Cantoni base broth+10 ul Tellurite solution (1%); • 2. 80 ul TSB/Esc/Fer Cit: 80 ul Tryptic soy broth containing 0.25% Esculin and 0.125% Ammonium Ferric Citrate; • 3. 80 ul TSB/Esc/Fer Cit+10 ul Genta: 80 ul Tryptic soy broth containing 0.25% Esculin and 0.125% Ammonium Ferric Citrate+10 ul of Gentamycin solution 10 mg/ml; • 4. 80 ul McC/PR25: 80 ul MacConkey broth (single strength) containing 0.0125% phenol red; and • 5. 80 ul TSB/PR25: 80 ul Tryptic soy broth containing 0.0125% phenol red. Bacteria Identification
Columns A to C and rows 1 and 2 were used for bacteria identification. A1: coagulase positive Staph; A2: Staphylococci; B1: Strep group D; B2: Strep group D; C1: general enrichment media (gram+ and gram-bacteria); C2: coliform bacteria.
Column A3 to A8: serial dilution of benzyl penicillin as potassium. Column B3 to B8: serial dilution of ceftiofur as hydrochloride. Column C3 to C8: serial dilution of cloxacillin as sodium. Antibiotic concentrations are listed as free form ranging between 4 ug/ml to 0.05 ug/ml.
Minimum inhibitory substance concentration (MIC) is here defined as the concentration if a colour change occurs between two wells (one well remains red with drug concentration 1, the other one yellow with drug concentration 2, whereas drug concentration 1 is larger than drug concentration 2) then the MIC is the value of drug concentration 1.
Table 21 indicates the microwell plate configuration #1; Drugs: Benzylpenicillin as potassium; Cloxacillin as sodium; Ceftiofur as hydrochloride; Drug concentration in each well (A3 to C8) is based on 80 μl composition+10 μl drug solution+20 μl clinical mastitis milk sample and equivalent to listed drug concentration in μg/ml; 20 ul of clinical bovine mastitis milk sample was added to each well (A1 to C8).
In addition, each well received one drop of clinical sample from a transfer pipette which was on average about 35 mg. This was determined through weighing the well plate prior and after the addition of clinical mastitis samples. This weight was then divided by 24.
• 1. 80 ul GC+10 ul Tell: 80 ul Giolitti Cantoni base broth+10 ul Tellurite solution (1%); • 2. 80 ul TSB/Esc/Fer Cit: 80 ul Tryptic soy broth containing 0.25% Esculin and 0.125% Ammonium Ferric Citrate; • 3. 80 ul TSB/Esc/Fer Cit+10 ul Genta: 80 ul Tryptic soy broth containing 0.25% Esculin and 0.125% Ammonium Ferric Citrate+10 ul of Gentamycin solution 10 mg/ml; • 4. 80 ul McC/PR25: 80 ul MacConkey broth (single strength) containing 0.0125% phenol red; and • 5. 80 ul TSB/PR25: 80 ul Tryptic soy broth containing 0.0125% phenol red.
Columns A to C and rows 1 and 2 were used for bacteria identification. A1: coagulase positive Staph; A2: Staphylococci; B1: Strep Group D; B2: -; C1: general enrichment media (gram+ and gram-); C2: coliform bacteria.
Column A3 to A8: serial dilution of benzyl penicillin as potassium. Drug concentrations given as free form ranging between 4 ug/ml to 0.05 ug/ml. Column B3 to B8: serial dilution of ceftiofur as hydrochloride. Drug concentrations given as free form ranging between 4 ug/ml to 0.05 ug/ml. Column C3 to C8: serial dilution of cloxacillin as sodium. Drug concentrations given as free form ranging between 4 ug/ml to 0.05 ug/ml.

CC1(C)S[C@@H]2[C@H](NC(=O)Cc3ccccc3)C(=O)N2[C@H]1C(=O)O [benzyl penicillin]
Colour of media in each well (ID 1, T = 22 h, 37° C., plate configuration #1, drug 0.05 μg/ml): orange | Colour of media in each well (ID 1, T = 22 h, 37° C., plate configuration #1, drug 0.1 μg/ml): red | Colour of media in each well (ID 1, T = 22 h, 37° C., plate configuration #1, drug 0.5 μg/ml): red | Colour of media in each well (ID 1, T = 22 h, 37° C., plate configuration #1, drug 1 μg/ml): red | Colour of media in each well (ID 1, T = 22 h, 37° C., plate configuration #1, drug 2 μg/ml): red | Colour of media in each well (ID 1, T = 22 h, 37° C., plate configuration #1, drug 4 μg/ml): red | Colour of media in each well (ID 2, T = 48 h, 37° C., plate configuration #1, drug 0.05 μg/ml): yellow | Colour of media in each well (ID 2, T = 48 h, 37° C., plate configuration #1, drug 0.1 μg/ml): yellow | Colour of media in each well (ID 2, T = 48 h, 37° C., plate configuration #1, drug 0.5 μg/ml): yellow | Colour of media in each well (ID 2, T = 48 h, 37° C., plate configuration #1, drug 1 μg/ml): yellow | Colour of media in each well (ID 2, T = 48 h, 37° C., plate configuration #1, drug 2 μg/ml): yellow | Colour of media in each well (ID 2, T = 48 h, 37° C., plate configuration #1, drug 4 μg/ml): yellow | Colour of media in each well (ID 3, T = 22 h, 37° C., plate configuration #1, drug 0.05 μg/ml): yellow | Colour of media in each well (ID 3, T = 22 h, 37° C., plate configuration #1, drug 0.1 μg/ml): yellow | Colour of media in each well (ID 3, T = 22 h, 37° C., plate configuration #1, drug 0.5 μg/ml): yellow | Colour of media in each well (ID 3, T = 22 h, 37° C., plate configuration #1, drug 1 μg/ml): yellow | Colour of media in each well (ID 3, T = 22 h, 37° C., plate configuration #1, drug 2 μg/ml): yellow | Colour of media in each well (ID 3, T = 22 h, 37° C., plate configuration #1, drug 4 μg/ml): yellow | Colour of media in each well (ID 3, T = 23 h, 37° C., Table 34, drug 0.05 μg/ml): yellow | Colour of media in each well (ID 3, T = 23 h, 37° C., Table 34, drug 0.1 μg/ml): yellow | Colour of media in each well (ID 3, T = 23 h, 37° C., Table 34, drug 0.5 μg/ml): yellow | Colour of media in each well (ID 3, T = 23 h, 37° C., Table 34, drug 1 μg/ml): yellow | Colour of media in each well (ID 3, T = 23 h, 37° C., Table 34, drug 2 μg/ml): yellow | Colour of media in each well (ID 3, T = 23 h, 37° C., Table 34, drug 4 μg/ml): yellow | Colour of media in each well (ID 3, T~7 h, 37° C., Table 34, drug 0.05 μg/ml): red | Colour of media in each well (ID 3, T~7 h, 37° C., Table 34, drug 0.1 μg/ml): red | Colour of media in each well (ID 3, T~7 h, 37° C., Table 34, drug 0.5 μg/ml): red | Colour of media in each well (ID 3, T~7 h, 37° C., Table 34, drug 1 μg/ml): red | Colour of media in each well (ID 3, T~7 h, 37° C., Table 34, drug 2 μg/ml): red | Colour of media in each well (ID 3, T~7 h, 37° C., Table 34, drug 4 μg/ml): red | Colour of media in each well (ID 3, T~11 h, 37° C., Table 34, drug 0.05 μg/ml): red | Colour of media in each well (ID 3, T~11 h, 37° C., Table 34, drug 0.1 μg/ml): red | Colour of media in each well (ID 3, T~11 h, 37° C., Table 34, drug 0.5 μg/ml): red | Colour of media in each well (ID 3, T~11 h, 37° C., Table 34, drug 1 μg/ml): red | Colour of media in each well (ID 3, T~11 h, 37° C., Table 34, drug 2 μg/ml): red | Colour of media in each well (ID 3, T~11 h, 37° C., Table 34, drug 4 μg/ml): red | Colour of media in each well (ID 4, T = 22 h, 37° C., plate configuration #1, drug 0.05 μg/ml): yellow | Colour of media in each well (ID 4, T = 22 h, 37° C., plate configuration #1, drug 0.1 μg/ml): yellow | Colour of media in each well (ID 4, T = 22 h, 37° C., plate configuration #1, drug 0.5 μg/ml): yellow | Colour of media in each well (ID 4, T = 22 h, 37° C., plate configuration #1, drug 1 μg/ml): orange | Colour of media in each well (ID 4, T = 22 h, 37° C., plate configuration #1, drug 2 μg/ml): orange | Colour of media in each well (ID 4, T = 22 h, 37° C., plate configuration #1, drug 4 μg/ml): yellow | Colour of media in each well (ID 5, T = 23 h, 37° C., plate configuration #2, drug 0.05 μg/ml): red | Colour of media in each well (ID 5, T = 23 h, 37° C., plate configuration #2, drug 0.1 μg/ml): red | Colour of media in each well (ID 5, T = 23 h, 37° C., plate configuration #2, drug 0.5 μg/ml): red | Colour of media in each well (ID 5, T = 23 h, 37° C., plate configuration #2, drug 1 μg/ml): red | Colour of media in each well (ID 5, T = 23 h, 37° C., plate configuration #2, drug 2 μg/ml): red | Colour of media in each well (ID 5, T = 23 h, 37° C., plate configuration #2, drug 4 μg/ml): red | Colour of media in each well (ID 5 to 8, T = 0 h (prior incubation, reference), plate configuration #2, drug 0.05 μg/ml): red | Colour of media in each well (ID 5 to 8, T = 0 h (prior incubation, reference), plate configuration #2, drug 0.1 μg/ml): red | Colour of media in each well (ID 5 to 8, T = 0 h (prior incubation, reference), plate configuration #2, drug 0.5 μg/ml): red
